Results as given in patent US10787450B2 (BRISTOL-MYERS SQUIBB COMPANY, priority 2016, dated 2020).

molecular target: ROCK2 (Homo sapiens (Human), UniProt O75116); assay: ROCK2 kinase inhibition assay (FITC peptide substrate, LABCHIP 3000 Reader); format: biochemical; settings: 5 μM ATP, 1.5 μM peptide substrate
Summary of the method: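 IC50 derived by curve fitting of dose-response inhibition, read as separation of phosphorylated from unphosphorylated FITC peptide (1.5 μM) after EDTA stop. Buffer: HEPES pH 7.5, MgCl2, Brij-35, DTT; ATP 5 μM; final DMSO <2%; reaction initiated by Rho kinase addition.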

ROCK2, sequence (O75116 whole entry, species assumed): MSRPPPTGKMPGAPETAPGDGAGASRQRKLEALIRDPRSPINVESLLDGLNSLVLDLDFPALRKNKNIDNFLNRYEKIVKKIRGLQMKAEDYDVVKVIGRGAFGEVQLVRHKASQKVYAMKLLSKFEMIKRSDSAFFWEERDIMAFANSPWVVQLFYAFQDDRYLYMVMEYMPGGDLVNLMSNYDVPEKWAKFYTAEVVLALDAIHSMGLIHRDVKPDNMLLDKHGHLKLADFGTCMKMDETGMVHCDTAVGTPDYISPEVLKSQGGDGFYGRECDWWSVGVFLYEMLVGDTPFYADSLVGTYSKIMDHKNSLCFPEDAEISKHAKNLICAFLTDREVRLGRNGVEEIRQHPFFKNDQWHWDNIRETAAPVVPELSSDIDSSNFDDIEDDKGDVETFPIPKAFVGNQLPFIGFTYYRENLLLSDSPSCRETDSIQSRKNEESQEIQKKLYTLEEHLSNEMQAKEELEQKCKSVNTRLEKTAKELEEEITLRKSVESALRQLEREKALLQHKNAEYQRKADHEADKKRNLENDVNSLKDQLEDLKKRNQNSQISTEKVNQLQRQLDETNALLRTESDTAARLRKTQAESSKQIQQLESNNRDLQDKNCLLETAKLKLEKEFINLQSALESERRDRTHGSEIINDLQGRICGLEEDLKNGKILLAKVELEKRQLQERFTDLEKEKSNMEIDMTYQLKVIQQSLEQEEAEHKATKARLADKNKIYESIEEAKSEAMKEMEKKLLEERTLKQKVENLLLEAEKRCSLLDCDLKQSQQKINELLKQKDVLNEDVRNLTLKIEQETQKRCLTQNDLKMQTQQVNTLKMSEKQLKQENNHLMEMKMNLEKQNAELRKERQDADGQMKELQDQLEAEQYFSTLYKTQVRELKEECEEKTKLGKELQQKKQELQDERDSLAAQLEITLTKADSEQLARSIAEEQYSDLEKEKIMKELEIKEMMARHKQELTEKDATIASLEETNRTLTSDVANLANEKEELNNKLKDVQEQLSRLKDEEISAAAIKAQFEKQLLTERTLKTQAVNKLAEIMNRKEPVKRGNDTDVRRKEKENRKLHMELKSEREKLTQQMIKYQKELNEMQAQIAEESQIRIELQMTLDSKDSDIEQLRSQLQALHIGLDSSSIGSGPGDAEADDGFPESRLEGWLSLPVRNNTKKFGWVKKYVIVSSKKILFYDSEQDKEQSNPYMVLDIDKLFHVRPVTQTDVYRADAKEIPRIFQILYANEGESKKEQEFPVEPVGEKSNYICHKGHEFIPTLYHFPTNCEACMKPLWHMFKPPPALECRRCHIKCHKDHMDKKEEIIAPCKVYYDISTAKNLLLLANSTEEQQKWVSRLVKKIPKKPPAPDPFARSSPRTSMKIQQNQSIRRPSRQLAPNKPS

Row | SMILES | IC50 [nM]
1 | CCc1nc(N2CC3(CCN(C(=O)CO)CC3)N(Cc3cccc(OC)c3)C2=O)ccc1-c1cn[nH]c1 [Example 184, 3-(6-ethyl-5-(1H-pyrazol-4-yl)pyridin-2-yl)-8-(2-hydroxyacetyl)-1-(3-methoxybenzyl)-1,3,8-triazaspiro[4.5]decan-2-one] | < 3
2 | CCc1nc(N2CC3(CCN(C(=O)C4COC4)CC3)N(Cc3cccc(OC)c3)C2=O)ccc1-c1cn[nH]c1 [Example 185, 3-(6-ethyl-5-(1H-pyrazol-4-yl)pyridin-2-yl)-1-(3-methoxybenzyl)-8-(oxetane-3-carbonyl)-1,3,8-triazaspiro[4.5]decan-2-one] | < 3
3 | CCc1nc(N2CC3(CCN(C(=O)CO)CC3)N(Cc3cc(F)cc(OC)c3)C2=O)ccc1-c1cn[nH]c1 [Example 186, 3-(6-ethyl-5-(1H-pyrazol-4-yl)pyridin-2-yl)-1-(3-fluoro-5-methoxybenzyl)-8-(2-hydroxyacetyl)-1,3,8-triazaspiro[4.5]decan-2-one] | < 3
4 | CCc1nc(N2CC3(CCN(C(=O)C(C)(C)O)CC3)N(Cc3cc(F)cc(OC)c3)C2=O)ccc1-c1cn[nH]c1 [Example 187, 3-(6-ethyl-5-(1H-pyrazol-4-yl)pyridin-2-yl)-1-(3-fluoro-5-methoxybenzyl)-8-(2-hydroxy-2-methylpropanoyl)-1,3,8-triazaspiro[4.5]decan-2-one] | < 3
5 | CCc1nc(N2CC3(CCN(C(=O)C(C)O)CC3)N(Cc3cc(F)cc(OC)c3)C2=O)ccc1-c1cn[nH]c1 (centres unmarked) [Example 188, 3-(6-ethyl-5-(1H-pyrazol-4-yl)pyridin-2-yl)-1-(3-fluoro-5-methoxybenzyl)-8-(2-hydroxypropanoyl)-1,3,8-triazaspiro[4.5]decan-2-one] | < 3
6 | Cc1c(F)cccc1CN1C(=O)N(c2ccc(-c3cn[nH]c3)cc2)CC12CCN(C(=O)C1(C)COC1)CC2 [Example 189, 3-(4-(1H-pyrazol-4-yl)phenyl)-1-(3-fluoro-2-methylbenzyl)-8-(3-methyloxetane-3-carbonyl)-1,3,8-triazaspiro[4.5]decan-2-one] | 3 to 30
7 | COc1cc(F)cc(CN2C(=O)N(c3ccc(-c4cn[nH]c4)cc3)CC23CCN(C(=O)C(C)(C)O)CC3)c1 [Example 190, 3-(4-(1H-pyrazol-4-yl)phenyl)-1-(3-fluoro-5-methoxybenzyl)-8-(2-hydroxy-2-methylpropanoyl)-1,3,8-triazaspiro[4.5] decan-2-one] | < 3
8 | COc1cccc(CN2C(=O)N(c3ccc(-c4cn[nH]c4)cc3)CC23CCN(C(=O)C(C)O)CC3)c1 (centres unmarked) [Example 191, 3-(4-(1H-pyrazol-4-yl)phenyl)-8-(2-hydroxypropanoyl)-1-(3-methoxybenzyl)-1,3,8-triazaspiro[4.5]decan-2-one] | < 3
9 | COc1cccc(CN2C(=O)N(c3ccc(-c4cn[nH]c4)cc3)CC23CCN(C(=O)C(C)(C)O)CC3)c1 [Example 192, 3-(4-(1H-pyrazol-4-yl)phenyl)-8-(2-hydroxy-2-methylpropanoyl)-1-(3-methoxybenzyl)-1,3,8-triazaspiro[4.5]decan-2-one] | < 3
10 | COc1cc(F)cc(CN2C(=O)N(c3ccc(-c4cn[nH]c4)cc3)CC23CCN(C(=O)C2(C)COC2)CC3)c1 [Example 193, 33-(4-(1H-pyrazol-4-yl)phenyl)-1-(3-fluoro-5-methoxybenzyl)-8-(3-methyloxetane-3-carbonyl)-1,3,8-triazaspiro[4.5]decan-2-one] | < 3
11 | COc1cccc(CN2C(=O)N(c3ccc(-c4cn[nH]c4)cn3)CC23CCN(C(=O)C(F)F)CC3)c1 [Example 194, 3-(5-(1H-pyrazol-4-yl)pyridin-2-yl)-8-(2,2-difluoroacetyl)-1-(3-methoxybenzyl)-1,3,8-triazaspiro[4.5]decan-2-one] | 3 to 30
12 | COc1cccc(CN2C(=O)N(c3ccc(-c4cn[nH]c4)cn3)CC23CCN(C(=O)CO)CC3)c1 [Example 195, 3-(5-(1H-pyrazol-4-yl)pyridin-2-yl)-8-(2-hydroxyacetyl)-1-(3-methoxybenzyl)-1,3,8-triazaspiro[4.5]decan-2-one] | 3 to 30
13 | COc1cccc(CN2C(=O)N(c3ccc(-c4cn[nH]c4)cn3)CC23CCN(C(=O)C2COC2)CC3)c1 [Example 196, 3-(5-(1H-pyrazol-4-yl)pyridin-2-yl)-1-(3-methoxybenzyl)-8-(oxetane-3-carbonyl)-1,3,8-triazaspiro[4.5]decan-2-one] | 3 to 30
14 | COCC(=O)N1CCC2(CC1)CN(c1ccc(-c3cn[nH]c3)cn1)C(=O)N2Cc1cccc(OC)c1 [Example 197, 3-(5-(1H-pyrazol-4-yl)pyridin-2-yl)-8-(2-methoxyacetyl)-1-(3-methoxybenzyl)-1,3,8-triazaspiro[4.5]decan-2-one] | 3 to 30
15 | COc1cccc(CN2C(=O)N(c3ccc(-c4cn[nH]c4)cn3)CC23CCN(C(=O)C(C)O)CC3)c1 (centres unmarked) [Example 198, 3-(5-(1H-pyrazol-4-yl)pyridin-2-yl)-8-(2-hydroxypropanoyl)-1-(3-methoxybenzyl)-1,3,8-triazaspiro[4.5]decan-2-one] | 3 to 30
16 | COc1cccc(CN2C(=O)N(c3ccc(-c4cn[nH]c4)cn3)CC23CCN(C(=O)C(C)(C)O)CC3)c1 [Example 199, 3-(5-(1H-pyrazol-4-yl)pyridin-2-yl)-8-(2-hydroxy-2-methylpropanoyl)-1-(3-methoxybenzyl)-1,3,8-triazaspiro[4.5]decan-2-one] | 3 to 30
17 | CCc1nc(N2CC3(CCN(C(=O)CC(C)C)CC3)N(Cc3cccc(OC)c3)C2=O)ccc1-c1cn[nH]c1 [Example 200, 3-(6-ethyl-5-(1H-pyrazol-4-yl)pyridin-2-yl)-1-(3-methoxybenzyl)-8-(3-methylbutanoyl)-1,3,8-triazaspiro[4.5]decan-2-one] | < 3
18 | CCc1nc(N2CC3(CCN(C(=O)C(C)C)CC3)N(Cc3cccc(OC)c3)C2=O)ccc1-c1cn[nH]c1 [Example 201, 3-(6-ethyl-5-(1H-pyrazol-4-yl)pyridin-2-yl)-8-isobutyryl-1-(3-methoxybenzyl)-1,3,8-triazaspiro[4.5]decan-2-one] | < 3
19 | CCc1nc(N2CC3(CCN(C(=O)C4CC(F)(F)C4)CC3)N(Cc3cccc(OC)c3)C2=O)ccc1-c1cn[nH]c1 [Example 202, 8-(3,3-difluorocyclobutane-carbonyl)-3-(6-ethyl-5-(1H-pyrazol-4-yl)pyridin-2-yl)-1-(3-methoxybenzyl)-1,3,8-triazaspiro[4.5]decan-2-one] | < 3
20 | CCc1nc(N2CC3(CCN(C(=O)CN(C)C)CC3)N(Cc3cccc(OC)c3)C2=O)ccc1-c1cn[nH]c1 [Example 203, 8-(2-(dimethylamino)acetyl)-3-(6-ethyl-5-(1H-pyrazol-4-yl)pyridin-2-yl)-1-(3-methoxybenzyl)-1,3,8-triazaspiro[4.5]decan-2-one] | < 3
21 | CCc1nc(N2CC3(CCN(C(=O)C(C)(C)CO)CC3)N(Cc3cccc(OC)c3)C2=O)ccc1-c1cn[nH]c1 [Example 204, 3-(6-ethyl-5-(1H-pyrazol-4-yl)pyridin-2-yl)-8-(3-hydroxy-2,2-dimethylpropanoyl)-1-(3-methoxybenzyl)-1,3,8-triazaspiro[4.5]decan-2-one] | < 3
22 | CCc1nc(N2CC3(CCN(C(=O)C(C)(C)O)CC3)N(Cc3cccc(OC)c3)C2=O)ccc1-c1cn[nH]c1 [Example 205, 3-(6-ethyl-5-(1H-pyrazol-4-yl)pyridin-2-yl)-8-(2-hydroxy-2-methylpropanoyl)-1-(3-methoxybenzyl)-1,3,8-triazaspiro[4.5]decan-2-one] | 3 to 30
23 | CCc1nc(N2CC3(CCN(C(=O)COC)CC3)N(Cc3cccc(OC)c3)C2=O)ccc1-c1cn[nH]c1 [Example 206, 3-(6-ethyl-5-(1H-pyrazol-4-yl)pyridin-2-yl)-8-(2-methoxyacetyl)-1-(3-methoxybenzyl)-1,3,8-triazaspiro[4.5]decan-2-one] | < 3
24 | CCc1nc(N2CC3(CCN(C(=O)C4CCCO4)CC3)N(Cc3cccc(OC)c3)C2=O)ccc1-c1cn[nH]c1 (centres unmarked) [Example 207, 3-(6-ethyl-5-(1H-pyrazol-4-yl)pyridin-2-yl)-1-(3-methoxybenzyl)-8-(tetrahydrofuran-2-carbonyl)-1,3,8-triazaspiro[4.5]decan-2-one] | < 3
25 | CCc1nc(N2CC3(CCN(C(=O)C4CC(F)C4)CC3)N(Cc3cccc(OC)c3)C2=O)ccc1-c1cn[nH]c1 (centres unmarked) [Example 208, 3-(6-ethyl-5-(1H-pyrazol-4-yl)pyridin-2-yl)-8-(3-fluorocyclobutane-carbonyl)-1-(3-methoxybenzyl)-1,3,8-triazaspiro[4.5]decan-2-one] | 3 to 30
26 | COc1cccc(CN2C(=O)N(c3ncc(-c4cn[nH]c4)c(OC)n3)CC23CCN(C(=O)C2CC(F)(F)C2)CC3)c1 [Example 209, 8-(3,3-difluorocyclo-butanecarbonyl)-3-(4-methoxy-5-(1H-pyrazol-4-yl)pyrimidin-2-yl)-1-(3-methoxybenzyl)-1,3,8-triazaspiro[4.5]decan-2-one] | 3 to 30
27 | COc1cccc(CN2C(=O)N(c3ncc(-c4cn[nH]c4)c(OC)n3)CC23CCN(C(=O)CN(C)C)CC3)c1 [Example 210, 8-(2-(dimethylamino)acetyl)-3-(4-methoxy-5-(1H-pyrazol-4-yl)pyrimidin-2-yl)-1-(3-methoxybenzyl)-1,3,8-triazaspiro[4.5]decan-2-one] | < 3
28 | COc1cccc(CN2C(=O)N(c3ncc(-c4cn[nH]c4)c(OC)n3)CC23CCN(C(=O)C(C)(C)CO)CC3)c1 [Example 211, 8-(3-hydroxy-2,2-dimethylpropanoyl)-3-(4-methoxy-5-(1H-pyrazol-4-yl)pyrimidin-2-yl)-1-(3-methoxybenzyl)-1,3,8-triazaspiro[4.5] decan-2-one] | 30 to 250
29 | COc1cccc(CN2C(=O)N(c3ncc(-c4cn[nH]c4)c(OC)n3)CC23CCN(C(=O)C(C)(C)O)CC3)c1 [Example 212, 8-(2-hydroxy-2-methylpropanoyl)-3-(4-methoxy-5-(1H-pyrazol-4-yl)pyrimidin-2-yl)-1-(3-methoxybenzyl)-1,3,8-triazaspiro[4.5]decan-2-one] | 3 to 30
